Assay results taken from US20230114107A1, “COMBINATION ANTI-CANCER THERAPIES WITH INDUCERS OF IRON-DEPENDENT CELLULAR DISASSEMBLY” (Flagship Pioneering Innovations V, Inc., priority 2019, published 2023).

Key:
[1] = system: NFKB reporter in THP1-Dual cells; assay: NFKB reporter activity in THP1-Dual monocytes co-cultured with treated Caki-1 cells; type: cell-based, human
Procedure: Caki-1 renal cell carcinoma cells were treated with either control (DMSO) or various doses of Erastin, for 24 hours prior to co-culture with THP1-Dual cells for an additional 24 hours. Erastin was purchased from Selleckchem (Houston, Tex.) and dissolved in DMSO. Subsequently, the THP1 supernatants were assessed for NFKB or IRF reporter activity. Caki-1 cells were acquired from ATCC and THP1-Dual cells acquired from InvivoGen (San Diego, Calif.). Both cell types were cultured in 96-well plates for the duration of the assay. 7,500 Caki-1 cells were plated 24 hours prior to dosing with Erastin, with a final DMSO concentration of 0.5%. 24 hours post-treatment, THP1-Dual cells (25,000 cells/well) were added to the Caki-1 cells. 24 hours later, 30 μl of supernatant was mixed with either 200 μl QuantiBlue (InvivoGen) or 50 μl QuantiLuc and absorbance or luminescence was recorded on a Molecular Devices plate reader. Caki-1 renal cell carcinoma cells were treated with either control (DMSO) or various doses of RSL3, for 24 hours prior to co-culture with THP1-Dual cells for an additional 24 hours. RSL3 was purchased from Selleckchem and dissolved in DMSO. Subsequently, the THP1 supernatants were assessed for NFKB or IRF reporter activity. Caki-1 cells were acquired from ATCC and THP1-Dual cells acquired from InvivoGen (San Diego, Calif.). Both cell types were cultured in 96-well plates for the duration of the assay. 7,500 Caki-1 cells were plated 24 hours prior to dosing with RSL3, with a final DMSO concentration of 0.5%. 24 hours post-treatment, THP1-Dual cells (25,000 cells/well) were added to the Caki-1 cells. 24 hours later, 30 μl of supernatant was mixed with either 200 μl QuantiBlue (InvivoGen, San Diego, Calif.) or 50 μl QuantiLuc and absorbance or luminescence was recorded on a Molecular Devices plate reader. […] Subsequently, the THP1 supernatant was assessed for NFKB reporter activity. Caki-1 cells were acquired from ATCC and THP1-Dual cells acquired from InvivoGen (San Diego, Calif.). Both cell types were cultured in 96-well plates for the duration of the assay.

[2] = system: Jurkat T cell leukemia cells; assay: Viability of Jurkat T cell leukemia cells after treatment; type: cell-based; conditions: various doses, 24 hours; FIG. 5A

Question: For `COC(=O)c1ccc([C@H]2c3[nH]c4ccccc4c3C[C@H](C(=O)OC)N2C(=O)CCl)cc1` [RSL3], which “NFKB signaling in THP1 monocytes” value ([1]; Caki-1 cells treated 24 hours, co-culture 24 hours, vs DMSO, FIG. 3B, 4B) is on record?
Answer: elicited NFKB signaling in THP1 monocytes

Question: And the “NFKB activity in THP1 cells, dose dependence” value ([1]; Caki-1 cells treated with RSL3 or ML162, FIG. 13B, 14B)?
Answer: increased NFKB activity in THP1 cells in a dose dependent manner

Question: And the “viability of Jurkat T cell leukemia cells” value [2]?
Answer: negatively affected the viability
